Experimental data reported in article PMC12473246, “An Improved Ratiometric FRET Biosensor with Higher Affinity for Extracellular ATP” (Sensors (Basel, Switzerland), 2025).
Read-outs that look alike come from different tables or passages of the source.

How the values were obtained:
[1] = biological target: T1, ecATeam3.10 (Bacillus sp. PS3, UniProt A0A0M5MQR7); experiment: FRET ratio live-cell imaging dose response; type: cell-based; settings: read-out: apparent dissociation constant
T1 construct: gene uncC; expressed on Neuro2A or HEK293 cells
T1 sequence (A0A0M5MQR7 1-133): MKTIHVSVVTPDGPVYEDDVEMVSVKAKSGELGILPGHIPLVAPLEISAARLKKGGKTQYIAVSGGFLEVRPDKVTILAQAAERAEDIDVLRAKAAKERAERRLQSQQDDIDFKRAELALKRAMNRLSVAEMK

[2] = biological target: T2, ECATS2 (DM-20) (Bacillus sp. PS3, UniProt A0A0M5MQR7, R103A/R115A); experiment: FRET ratio live-cell imaging dose response; type: cell-based
T2 construct: gene uncC; double-mutant epsilon subunit between mseCFP and mVenus, 20 nm alpha-helical ER/K linker to PDGFR transmembrane domain
T2 sequence (A0A0M5MQR7 1-133, stated change not applied): as the sequence (A0A0M5MQR7 1-133) above

| SMILES | Kd [1] [µM] | Kd ([2]; read-out: apparent dissociation constant) [µM] | Kd ([2]; read-out: apparent ADP dissociation constant) [µM] |
| --- | --- | --- | --- |
| Nc1ncnc2c1ncn2[C@@H]1O[C@H](COP(=O)(O)OP(=O)(O)OP(=O)(O)O)[C@@H](O)[C@H]1O [ATP] | 12 ± 5 | 3.7 ± 0.6 | – |
| Nc1ncnc2c1ncn2[C@@H]1O[C@H](COP(=O)(O)OP(=O)(O)O)[C@@H](O)[C@H]1O [ADP] | – | – | ~100 |
